Data set [1] in a line: Plasma stability, mouse plasma. It counts as in vitro ADME. The following applies: 2.0 µM, 37°C. As to the method:
(§1) At 37°C, 2.0 µM of the compound was co-incubated with plasma samples from five species (mouse, rat, dog, cynomolgus monkey, human) for 120 minutes. The concentration of the compound in the samples was detected by the liquid chromatography-tandem mass spectrometry (LC-MS/MS) method, and the half-life (T1/2) was calculated.

Data set [2] relates to NF-κB signaling pathway. Kind of data set: Activation of NF-κB signaling pathway (phosphorylated P65, Western blot). The following applies: CT26 cells; FIG. 6. It counts as cell-based, Murine. On the procedure: In this example, Compounds 3 and 9 synthesized in the above preparation examples were tested for their ability to activate the NF-κB signaling pathway, as indicated by an increase of phosphorylated P65. GCA, a known Arf1 inhibitor, was used as a positive control.
In CT26 cells treated with DMSO, GCA, Compound 3, or Compound 9, the relevant protein levels were evaluated by Western blot analysis as previously described (Wang et al., 2020).
(In general: In western blotting, separated proteins are transferred to a membrane and probed.)

Data set [3] is described as follows: Solubility in DMSO and H2O.
In data set [4] the test system is CCL5. Kind of data set: Upregulation of chemokine CCL5 expression (quantitative RT-PCR). It counts as cell-based, Murine. The following applies: CT26 cells; FIG. 5. As to the method:
In this example, the upregulation of chemokine CCL5 expression induced by the treatment of Compounds 3 and 9 synthesized in the above preparation examples was tested. Quantitative RT-PCR was used to measure the expression level of chemokine CCL5 in CT26 cells treated with DMSO, Compound 3, or Compound 9.

In data set [5] the test system is Caco-2 cells. Kind of data set: Permeability in Caco-2 cells. It counts as in vitro ADME. The following applies: Caco-2, conclusion in words. As to the method: (§2) The permeability of Compound 9 was evaluated using Caco-2 cells. The transport buffer used in this study was HBSS with 10.0 mM HEPES, pH 7.40±0.05. The test concentration was 2.00 µM, and a bidirectional test was performed on the test compound. Digoxin was repeatedly tested bidirectionally at 10.0 µM, while nadolol and metoprolol were repeatedly tested in the A-B direction at 2.00 µM. The final DMSO concentration was adjusted to less than 1%. The mixture was incubated at 37.0°C, 5% CO2, saturated humidity, without shaking in a CO2 incubator for 2 hours. All samples were mixed with acetonitrile containing internal standards and centrifuged at 3220 × g for 10 mins. The concentrations of the test compound and reference compound in the initial solution, donor solution, and acceptor solution were determined by the LC-MS/MS, using the analyte/internal standard peak area ratio.

Data set [6] can be described thus: Permeability in Caco-2 cells. It counts as in vitro ADME. The following applies: human, Caco-2, pH 7.4, 2.00 µM. As to the method: as §2
On the technique in general: Caco-2 cells form a polarised layer with tight junctions and transporters.

A short description of data set [7]: Plasma stability, human plasma. It counts as in vitro ADME. Conditions: 2.0 µM, 37°C. On the procedure: as §1

As for `Cc1csc2ncnc(Nc3ccc4c(c3)ncn4C)c12` [Compound 9, 5-Methyl-N-(1-methyl-1H-benzo[d]imidazol-5-yl)thieno[2,3-d]pyrimidin-4-amine], the “remaining amount in plasma” value in data set [1] (time point 0 min) is 100.0%; in data set [1] (time point 10 min) it was 99.3%; in data set [1] (time point 30 min) it was 98.6%; in data set [1] (time point 60 min), 104.1%; in data set [1] (time point 120 min) it was 96.5%; in data set [7] (time point 0 min), 100.0%. Also, the “remaining amount in plasma” value in data set [7] (time point 10 min) is reported as 99.8%; in data set [7] (time point 30 min) it was 108.9%; in data set [7] (time point 60 min) it was 113.3%; in data set [7] (time point 120 min), 104.6%. For the same molecule, in data set [2], the “phosphorylation level of P65” value is “increase the phosphorylation level of P65”. Besides, the “solubility in DMSO” value in data set [3] (DMSO, FIG. 2A) is “soluble”. Also, the “solubility in H2O” value in data set [3] (H2O, FIG. 2B) is “high solubility”. In addition, the “expression of the chemokine CCL5” value in data set [4] is recorded as “effectively promote the expression”. The cellular permeability entry in data set [5] is on record as “high cellular permeability”. In data set [5], the “substrate of the efflux transporter P-gp” value is recorded as “unlikely to be a substrate of the efflux transporter P-gp”. For the same molecule, the Papp A→B (commonly the apparent permeability from the apical to the basolateral side of a cell layer) at 2 h, 2 µM in data set [6] (2 hours, pH 7.40±0.05) was determined as 29 ×10⁻⁶ cm/s. In data set [6] (2 hours, pH 7.40±0.05), the apparent permeability from basolateral to apical (Papp B→A) – broadly, how fast a substance crosses the layer from the basolateral side – at 2 h, 2 µM turned out to be 20.7 ×10⁻⁶ cm/s. In addition, the efflux ratio at 2 h, 2 µM in data set [6] (bidirectional, read-out: Efflux Ratio (ER)) is 0.714.

For the origin of these results see EP4755891A1, “ARF1 INHIBITOR AND USE THEREOF” (AOBIO PHARMACEUTICAL CO., LTD., priority 2023, dated 2025).
